Entries after “also recorded” stand apart in the source; their conditions may differ.
Legend:
MM cell lines = settings: different MM cell lines; cited from earlier work
HR-SMM = settings: cited from earlier work
5TGM1 MM cells = assay: Cell Counting Kit-8 (CCK-8) proliferation assay; format: cell-based, murine; settings: ADU-S100 0-5 uM, 72 hr
Method: Cell viability was evaluated by Cell Counting Kit-8 (CCK-8) assay (Dojindo Molecular Technologies).

5TGM1 tumors [1] = assay: In vivo tumor growth analysis; design: species or system mouse
Method: (§1) 6-week old female immunodeficient NOD.CB17-Prkdcscid/NCrCrl (NOD/SCID) mice (Charles River) and immunocompetent C57BL/KaLwRijHsd (Envigo) mice were housed in an animal facility at the Dana-Farber Cancer Institute (DFCI). All experiments were performed after approval by the Animal Ethics Committee of the DFCI and performed using institutional guidelines.
To assess the effect of BTZ in the absence of an immune system, NOD/SCID mice were subcutaneously injected with 1×10^6 5TGM1 WT cells in a 1:1 ratio with Matrigel® (Corning); to assess BTZ in an immunocompetent host, C57BL/KaLwRijHsd mice were injected with 1×10^6 5TGM1 either WT or calrKO in the same ratio with Matrigel®. When tumor became measurable, mice (5/group) were randomized to receive either PBS or BTZ administered intra peritoneally (i.p.) 0.5 mg/kg twice/week for 2 weeks. Tumor sizes were measured and mice were sacrificed when tumors reached 2 cm in diameter or ulceration or major compromise in quality of life. A parallel experiment was performed to allow for tumor harvesting after two injections i.p. of BTZ for RNA-seq analysis, as detailed below.
as §1, with “(NOD/SCID)” for “(NOD/SCID) mice”, “in the” for “in an”, “at DFCI.” for “at the Dana-Farber Cancer Institute (DFCI).”
(§2) NOD/SCID and C57BL/KaLwRijHsd mice were subcutaneously (sc) injected with 1×10^6 5TGM1 either WT or Calr^KO cells in PBS. When tumor became measurable, mice were randomized to receive either PBS or BTZ administered intra peritoneally (i.p.) 0.5 mg/kg twice/week for 2 weeks. Tumor sizes were measured as previously described (46), and mice were sacrificed when tumors reached 2 cm in diameter or ulceration or major compromise in quality of life. A parallel experiment was performed to allow for tumor harvesting after two injections ip of BTZ for RNA-seq analysis, as detailed below. For BTZ and STING agonist combination studies, C57BL/KaLwRijHsd (n=5/group) and SCID/NOD (n=6/group) mice bearing 5TGM1 WT and C57BL/KaLwRijHsd mice (n=5/group) bearing 5TGM1 Sting^KO tumors were randomized to receive: PBS, BTZ (0.375 mg/kg twice a week for 2 weeks, i.p.), ADU-S100 (100 μg) administered in the peritumoral area (day 1 and 2), or a combination. Tumor sizes were measured as described above. A parallel experiment in C57BL/KaLwRijHsd mice was performed to allow for tumor harvesting after one administration of either BTZ or ADU-S100. Tumors were fixed in 10% formalin for 24 h, and then maintained in 70% ethanol prior to paraffin embedding and processing for IHC to detect CD3 (#nb600 Ab, Novus Bio).

cGAS/STING pathway = assay: Western blot of cGAS/STING pathway; format: cell-based, human; settings: AMO1; ADU-S100 10 uM with BTZ 5 nM
Method: Cell lysis was performed in RIPA buffer (Boston Bio Products) supplemented with Halt protease and phosphatase inhibitor cocktail (ThermoFisher Scientific). SDS-PAGE was performed on NuPage Bis-Tris gels (ThermoFisher Scientific) using MOPS or MES running buffer. Gels were dry transferred onto 0.45 μm nitrocellulose membranes using the iBlot® Dry Blotting System (ThermoFisher Scientific). The following Abs were purchased from Cell Signaling Technology: EIF2A (#5324), p-EIF2A (#3398), ATF4 (#11815), CHOP (2895), CALR (#12238), cGAS (#15102), TBK1 (#3504), pTBK1 (#5483), pIRF3 (#29047), STING (#13647). GAPDH (#2118) and B-ACTIN (#4970) were used as loading controls.

5TGM1 tumors [2] = assay: IHC CD3 staining of tumors; format: in vivo, mouse; settings: tumors retrieved after one administration of the drugs
Method: as §2

[3] = system: type-I IFN response in AMO1 and NCI-H929 MM cells; assay: Type-I IFN response in MM cells (RNA-seq, qRT-PCR, ELISA); format: cell-based, human; settings: H929; STING agonist 10 uM with BTZ 5 nM
Method: Total RNA from multiple myeloma cells was prepared with TRIzol™ (ThermoFisher Scientific) and RNA Clean and Concentrator™-5 kit (Zymo Research) following the product instructions. RNA integrity and quantity was assessed by NanoDrop Spectrophotometer (ThermoFisher Scientific). For analysis of mRNA expression, oligo-dT-primed cDNA was obtained using the High Capacity cDNA Reverse Transcription Kit (ThermoFisher Scientific), and used as template to quantify: human and murine IFNA1 (Hs03044218_g1, Mm03030145_gH), human and murine IFNB1 (Hs01077958_s1, Mm00439552_s1), human and murine CXCL9 (Hs00171065_ml, Mm00434946_ml), and human and murine GAPDH (Hs02786624_g1, Mm99999915_g1). Analysis was determined by RT-PCR using TaqMan®Fast Universal PCR Master Mix on a 7500 Fast Real-Time PCR System (ThermoFisher Scientific). Comparative RT-PCR was performed in triplicate. Relative expression was calculated using the comparative […] (Ct) method.
AMO1^WT and STING^KO cells were either untreated or treated with BTZ for 24 h. Supernatant was collected, and secretion of CXCL9 chemokines was analyzed by MIG (CXCL9) Human Instant ELISA™ Kit (#BMS285INST, ThermoFisher Scientific).
AMO1 WT and STING^KO were cultured for 16 h in the presence of absence of BTZ (5 nM). RNA was extracted as previously described and submitted to NovaSeq RNAseq analysis followed by VIPER NGS Analysis pipeline (Cornwell et al. (2018) BMC Bioinformatics; 19(1):135). Lists of DEGs were applied to the GSEA software. RNAseq data have been submitted to Gene Expression Omnibus (accession number: GSE171837).

[4] = system: AMO1, H929 and KMS11 MM cells; assay: Phagocytosis assay of MM cells by monocyte-derived DCs; format: cell-based, human; settings: AMO1 GABARAP^KO after BTZ, rCALR 3 ug/10^6 cells
Method: Mo-DCs were generated from CD14+ peripheral blood monocytes were positively selected using magnetic beads (Miltenyi Biotec) and cultured for 6 days in mo-DC differentiation medium containing GM-CSF and IL-4 (130-094-812; Miltenyi Biotec) to generate Mo-DCs. AMO1, KMS11 and H929 cells lines, as well as patient MM cells, were stained with CellTrace™ Far Red (ThermoFisher Scientific), cultured with or without BTZ (for 16 h), and then incubated in 48-well plates for 4 h at 1:1 ratio with CellTrace™ CFSE stained Mo-DCs. Cells were then collected, and phagocytosis analysis was performed by flow cytometry and confocal microscopy. Analagous phagocytosis experiments was performed using 5TGM1 murine MM and immature murine DC line JAWSII.
Collected cells were analyzed using the BD LRSFortessa™ X-20 flow cytometer. Mo-DCs that engulfed MM cells were CFSE and FAR-RED double positive. Fold increase in percentage of double positive DCs after co-culture with BTZ treated vs untreated MM cells was compared.
Mo-DCs were generated from CD14+ peripheral blood monocytes from healthy donors, positively selected using magnetic beads (Miltenyi Biotec), cultured for 6 days in mo-DC differentiation medium containing GM-CSF and IL-4 (130-094-812; Miltenyi Biotec). AMO1 and NCI-H929 cells lines, as well as patient MM cells, were stained with CellTrace™ Far Red (ThermoFisher Scientific), cultured with or without BTZ for 16 h, and then incubated in 48-well plates for 4 h at 1:1 ratio with CellTrace™ CFSE stained Mo-DCs. Cells were then collected, and phagocytosis analysis was performed by flow cytometry and confocal microscopy. Analagous phagocytosis experiments were performed using 5TGM1 murine multiple myeloma and JAWSII cell line that was used as source of immature murine DCs.
Flow cytometry-based assay: Collected cells were analyzed using the BD LRSFortessa X-20 flow cytometer. Mo-DCs that engulfed MM cells were CFSE and FAR-RED double positive. Fold increase in percentage of double positive DCs after co-culture with BTZ treated vs untreated MM cells was compared.

CC(C)C[C@H](NC(=O)[C@H](CCc1ccccc1)NC(=O)CN1CCOCC1)C(=O)N[C@@H](Cc1ccccc1)C(=O)N[C@@H](CC(C)C)C(=O)[C@@]1(C)CO1 [carfilzomib]
CRT exposure (MM cell lines): shown to expose CRT in different MM cell lines

Nc1cccc2c1CN(C1CCC(=O)NC1=O)C2=O (centres unmarked) [lenalidomide]
progression of HR-SMM (HR-SMM; lenalidomide alone): delay progressions of HR-SMM
treatment discontinuation and secondary cancers (HR-SMM; lenalidomide cohort): high rate of treatment discontinuation and secondary cancers

Nc1ncnc2c1ncn2[C@@H]1O[C@@H]2COP(=O)([S-])O[C@@H]3[C@H](O)[C@@H](COP([O-])(=S)O[C@H]2[C@H]1O)O[C@H]3n1cnc2c(N)ncnc21.[Na+].[Na+] (some centres unmarked) [ADU-S100]
direct killing of MM cells (live cells vs untreated) (5TGM1 MM cells): sensitive to a direct killing
anti-tumor activity (5TGM1 tumors [1]; 5TGM1 Sting^KO tumors in immunocompetent mice): still retained a partial anti-multiple myeloma activity
anti-tumor effects (5TGM1 tumors [1]; 5TGM1 WT in immunodeficient NOD/SCID mice, BTZ 0.375 mg/kg, ADU-S100 100 ug day 1 and 2): abrogated the anti-tumor effects
phosphorylated TBK1 (cGAS/STING pathway): higher levels of phosphorylated TBK1 kinase
CD3+ T cell infiltration within tumors (IHC) (5TGM1 tumors [2]): increased CD3+ T cell infiltration within tumors
transcription of IFNA1 and IFNB1 [3]: increased transcription of IFNA1 and IFNB1

B1: rCRT: recombinant calreticulin purchased from Sigma (SRP8001) (protein)
chain: EPAVYFKEQFLDGDGWTSRWIESKHKSDFGKFVLSSGKFYGDEEKDKGLQTSQDARFYALSASFEPFSNKGQTLVVQFTVKHEQNIDCGGGYVKLFPNSLDQTDMHGDSEYNIMFGPDICGPGTKKVHVIFNYKGKNVLINKDIRCKDDEFTHLYTLIVRPDNTYEVKIDNSQVESGSLEDDWDFLPPKKIKDPDASKPEDWDERAKIDDPTDSKPEDWDKPEHIPDPDAKKPEDWDEEMDGEWEPPVIQNPEYKGEWKPRQIDNPDYKGTWIHPEIDNPEYSPDPSIYAYDNFGVLGLDLWQVKSGTIFDNFLITNDEAYAEEFGNETWGVTKAAEKQMKDKQDEEQRLKEEEEDKKRKEEEEAEDKEDDEDKDEDEEDEEDKEEDEEEDVPGQAKDEL
phagocytosis of MM cells by DCs with recombinant calreticulin add-back [4]: confirmed the on-target effect GABARAP^KO; also recorded: restored phagocytosis of MM cells after BTZ
phagocytosis of MM cells by DCs with recombinant calreticulin add-back ([4]; listed as recombinant CRT): increases the immune response against the cancer cells
